Source: patent US10420836B2, “Methods of immunizing a subject and compositions related thereto” (priority 2015, dated 2019)
Read-outs that look alike come from different tables or passages of the source.

Assays:
[1] = tested on: influenza virus A/Udorn/1972 (H3N2); format: in vivo, mice; conditions: for survival: adjuvant co-administered intradermally with 1 μg HA A/Victoria/210/2009 subunit vaccine; for signs of disease after challenge / body weight loss after challenge: adjuvant with vaccine; for protective immune responses / protective immunity to influenza: used as adjuvant for intradermal influenza vaccination; for body weight loss after challenge: compared to the other vaccinated groups
[2] = tested on: primary human keratinocytes; format: cell-based; conditions: primary human keratinocytes (unpublished)
[3] = tested on: caspase-1; assay: Preliminary cell-signaling data (inflammasome / caspase-1 activation)
[4] = tested on: A/Victoria/210/2009 subunit influenza vaccine; format: in vivo, mice; conditions: after intradermal vaccination with A/Victoria/210/2009 plus adjuvant
[5] = Observation for adverse effects after adjuvanted skin vaccination; format: in vivo; conditions: low doses used for skin vaccination; four months post-adjuvanted vaccination
From the text: This modification may improve antigen presentation resulting in protective immunity. […] See Manoury. Proteases: essential actors in processing antigens and intracellular toll-like receptors. Frontiers in immunology 4, 299, (2013). Fullerene is considered as nanoparticle due to its structure that can recruit cells following skin immunization. The toxicity of fullerenes has been reported in Zhang et al., Endocytic mechanisms and toxicity of a functionalized fullerene in human cells. Toxicology letters 191, 149-157, (2009). […] Vaccine adjuvant and vaccine formulations of fullerene derivatives are reported in CN103495164.

| SMILES | survival ([1]; 4×LD50 A/Udorn/1972 challenge) [%] | signs of disease after challenge [1] | survival rate ([1]; at three different doses tested (11.9, 119 and 1190 nanomoles) with vaccine, infection with A/Udorn 1972) [%] | protective immune responses / protective immunity to influenza [1] | IL-1 beta and TNF-α production [2] | caspase-1 activation [3] | body weight loss after challenge [1] | Serum IgG2a [4] | longevity of immune responses ([1]; combined with vaccine, […]) | survival ([1]; […]) [%] | adverse effects [5] |
| --- | --- | --- | --- | --- | --- | --- | --- | --- | --- | --- | --- |
| O=C1c2c(O)cccc2Cc2cccc(O)c21 [anthralin, 1,8-dihydroxy-9,10-dihydroanthracen-9-one] | 80 | fewer signs of disease | ≥ 80 | induces protective immune responses | large amounts | not activated | – | – | – | – | – |
| O=C(Nc1cc(C(F)(F)F)cc(C(F)(F)F)c1)c1cc(Cl)ccc1O [IMD 0354, N-(3,5-bis-trifluoromethyl-phenyl)-5-chloro-2-hydroxy-benzamide] | 100 | – | – | improved protective immunity to influenza | – | – | minimal body weight loss | increased | – | – | – |
| CC(C)Cn1cnc2c(N)nc3ccccc3c21 [Imiquimod] | – | fewer signs of disease | – | – | – | – | lowest body weight loss | – | improved | – | – |
| c12c3c4c5c1c1c6c7c2c2c8c3c3c9c4c4c%10c5c5c1c1c6c6c%11c7c2c2c7c8c3c3c8c9c4c4c9c%10c5c5c1c1c6c6c%11c2c2c7c3c3c8c4c4c9c5c1c1c6c2c3c41 [fullerene] | – | – | – | improved protective immune responses | – | – | – | – | – | 80 | no adverse effects |
